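All cell lines were grown in 96-well plates and treated with compound for 48 hours. At the GI50, growth is halved. The concentration for full growth arrest is given as TGI.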

Among the test systems are ACHN renal; HCT-15 colon; HOP-62 NSCLC; HS 578T breast; LOX IMVI melanoma; MDA-MB-231 breast; MDA-MB-435; NCI-H460 lung; RPMI-8226 leukemia; UACC-257 melanoma.
Holding throughout (experiment): NCI anticancer screen, dose series, 48 h

For `CCc1ccc(Oc2c(-c3ccc(OCCc4cccc(C(F)(F)F)c4)cc3O)n[nH]c2C(F)(F)F)cc1`, the GI50 is 2.18 µM in the test with ACHN renal; 1.96 µM in the test on HCT-15 colon; 5.76 µM with HOP-62 NSCLC; 6.04 µM in the test with HS 578T breast; 1.94 µM with LOX IMVI melanoma; 4.94 µM with MDA-MB-231 breast. Besides, the GI50 in the test on MDA-MB-435 is 3.71 µM; in the test with NCI-H460 lung, 1.67 µM; in the test on RPMI-8226 leukemia it was 1.8 µM; in the test on UACC-257 melanoma, 4.58 µM. Besides, the TGI came to 7.66 µM with ACHN renal; 6.89 µM with HCT-15 colon; 12 µM in the test with HOP-62 NSCLC; 15.4 µM in the test with HS 578T breast; 6.89 µM in the test with LOX IMVI melanoma; 11.1 µM with MDA-MB-231 breast. Besides, the TGI with MDA-MB-435 was 10.3 µM; in the test with NCI-H460 lung, 5.74 µM; in the test on RPMI-8226 leukemia, 7.55 µM; with UACC-257 melanoma, 10.6 µM.
As to `CO/N=C(/C)COc1ccc2c(c1)oc(=O)c1cc(OC)ccc12`, the GI50 in the test with ACHN renal was 75 µM; with HCT-15 colon, greater than 100 µM; in the test on HOP-62 NSCLC, 95.3 µM; in the test with HS 578T breast it was greater than 100 µM; in the test with LOX IMVI melanoma, greater than 100 µM; in the test with MDA-MB-231 breast it was 34.1 µM. In addition, the GI50 with MDA-MB-435, in the test on NCI-H460 lung, in the test on RPMI-8226 leukemia and in the test with UACC-257 melanoma was greater than 100 µM in each case. For the same molecule, the TGI in the test with ACHN renal, in the test on HCT-15 colon, in the test on HOP-62 NSCLC, in the test on HS 578T breast, with LOX IMVI melanoma and in the test on MDA-MB-231 breast was greater than 100 µM in each case. Moreover, the TGI in the test on MDA-MB-435, with NCI-H460 lung, in the test on RPMI-8226 leukemia and in the test on UACC-257 melanoma was greater than 100 µM in each case.
On to `COc1ccc2nc3cc([N+](=O)[O-])ccc3c(NCCO)c2c1`, for which the GI50 with ACHN renal was 4.87 µM; with HCT-15 colon, 7.24 µM; in the test on HOP-62 NSCLC it was 2.07 µM; in the test with HS 578T breast, 2.94 µM; in the test on LOX IMVI melanoma it was 2.51 µM; with MDA-MB-231 breast it was 4.4 µM. Besides, the GI50 was 2.12 µM with MDA-MB-435, 1.66 µM with NCI-H460 lung, 1.39 µM with RPMI-8226 leukemia and 2.61 µM with UACC-257 melanoma. The TGI in the test with ACHN renal stood at 31.7 µM; with HOP-62 NSCLC, 5.19 µM; in the test with HS 578T breast, 26.2 µM; with LOX IMVI melanoma it was 9.18 µM; in the test with MDA-MB-231 breast, 28.1 µM; in the test with MDA-MB-435, 5.09 µM. Moreover, the values for the TGI with NCI-H460 lung, in the test with RPMI-8226 leukemia and in the test on UACC-257 melanoma were 4.9 µM, 7.16 µM and 7.68 µM, respectively.
`COc1ccc2[nH]c(C(=O)OCc3ccc4c(Br)cc(Br)c(O)c4n3)cc2c1`: the GI50 in the test with ACHN renal is 0.343 µM; in the test on HCT-15 colon, 0.355 µM; with HOP-62 NSCLC it was 1.38 µM; in the test on HS 578T breast it was 1.66 µM; in the test on LOX IMVI melanoma, 0.188 µM; in the test on MDA-MB-231 breast it was 0.808 µM. The GI50 is 0.836 µM in the test on MDA-MB-435, 1.48 µM with NCI-H460 lung, 0.308 µM in the test with RPMI-8226 leukemia and 1.38 µM in the test with UACC-257 melanoma. Besides, the TGI is 1.35 µM in the test on ACHN renal; 1.23 µM in the test on HCT-15 colon; 3.34 µM in the test with HOP-62 NSCLC; 4.97 µM in the test on HS 578T breast; 0.453 µM in the test with LOX IMVI melanoma; 2.17 µM in the test with MDA-MB-231 breast. The TGI is 2.2 µM in the test with MDA-MB-435, 3.18 µM in the test with NCI-H460 lung, 1.29 µM in the test on RPMI-8226 leukemia and 2.85 µM with UACC-257 melanoma.
On to `O=C(CCN1CCCCC1)c1csc2ccccc12`, for which the TGI in the test with ACHN renal, in the test on HCT-15 colon, in the test with HOP-62 NSCLC, in the test on HS 578T breast, in the test on LOX IMVI melanoma and in the test with MDA-MB-231 breast was greater than 100 µM throughout. For the same molecule, the TGI with MDA-MB-435, in the test on NCI-H460 lung, with RPMI-8226 leukemia and in the test on UACC-257 melanoma was greater than 100 µM throughout.
As for `COc1ccc(OC)c(C2=C(c3cn(C)c4ccccc34)C(=O)NC2=O)c1`, the GI50 with ACHN renal is greater than 25 µM; with HCT-15 colon, greater than 23.9 µM; with HOP-62 NSCLC it was greater than 25 µM; in the test with HS 578T breast, greater than 16.9 µM; with LOX IMVI melanoma, greater than 25 µM; in the test on MDA-MB-231 breast, greater than 25 µM. The GI50 in the test on MDA-MB-435 is 8.6 µM; in the test on NCI-H460 lung it was greater than 25 µM; with RPMI-8226 leukemia, greater than 25 µM; with UACC-257 melanoma it was greater than 25 µM. Moreover, the TGI with ACHN renal, with HCT-15 colon, in the test on HOP-62 NSCLC, in the test with HS 578T breast, in the test with LOX IMVI melanoma and in the test with MDA-MB-231 breast was greater than 25 µM each time. Moreover, the TGI with MDA-MB-435, in the test on NCI-H460 lung, in the test with RPMI-8226 leukemia and in the test with UACC-257 melanoma was greater than 25 µM in each case.
For `Nc1nc(N)c2cc(S(=O)(=O)c3ccc4ccccc4c3)ccc2n1`, the TGI is greater than 100 µM in the test with ACHN renal; greater than 100 µM with HCT-15 colon; 30.3 µM in the test with HOP-62 NSCLC; greater than 73.8 µM in the test on HS 578T breast; greater than 100 µM in the test with LOX IMVI melanoma; greater than 31.6 µM in the test with MDA-MB-231 breast. The TGI in the test with MDA-MB-435 is greater than 100 µM; in the test with NCI-H460 lung, greater than 100 µM; in the test on RPMI-8226 leukemia it was greater than 100 µM; with UACC-257 melanoma, 2.67 µM.
As to `CCN1CCN(Cc2ccc(Nc3ncc(F)c(-c4cc(F)c5nc(C)n(C(C)C)c5c4)n3)nc2)CC1`, the GI50 in the test on ACHN renal was 0.172 µM; in the test on HCT-15 colon, 0.47 µM; in the test on HOP-62 NSCLC it was 6.68 µM; with HS 578T breast, 0.745 µM; in the test on LOX IMVI melanoma it was 1.41 µM; with MDA-MB-231 breast, 6.29 µM. For the same molecule, the GI50 in the test on MDA-MB-435 was 0.191 µM; in the test on NCI-H460 lung it was 0.959 µM; in the test on RPMI-8226 leukemia it was 6.68 µM; with UACC-257 melanoma, 5.45 µM. In addition, the TGI in the test on ACHN renal was found to be 9.56 µM; in the test with HCT-15 colon it was 11.7 µM; with HOP-62 NSCLC, 13.8 µM; in the test with HS 578T breast, 15.3 µM; in the test with LOX IMVI melanoma, 10.9 µM; with MDA-MB-231 breast it was 13 µM. The TGI came out at 10.7 µM in the test with MDA-MB-435, 12.7 µM in the test on NCI-H460 lung, 19.1 µM in the test with RPMI-8226 leukemia and 7.97 µM with UACC-257 melanoma.

The record behind these values is PubChem BioAssay (NCI).
